This is an account of results in patent US20060281714A1, “Combinations of a cathepsin k inhibitor and a bisphosphonate in the treatment of bone metastasis, tumor growth and tumor-induced bone loss” (priority 2003, published 2006).

Molecules are shown by their SMILES.

The assay deals with 4T1Luc2000 mouse mammary carcinoma cells. Briefly: Osteolytic activity in the 4T1Luc2000 assay (intra-tibial injection of tumor cells). It is filed as in vivo, Athymic Balb\c nude, female mice. To be noted: 50 mg/kg p.o. twice daily, in combination with Zoledronic Acid 100 ug/kg s.c. twice weekly; compared with Zoledronic Acid single treatment. Here is the method: Intra-Tibial Injection of 4T1Luc2000 Mouse Mammary Carcinoma Cells:
Athymic Balb\c nude, female mice (Spezialzuchten, Stein, Switzerland) are anaesthetized by i.p. administration of […] ketarom: a mixture of 100 mg/kg Ketalar® 50 (Parker-Davis, Zurich, Switzerland) and 10 mg/kg xylazine (Rompun®, Bayer, Lyssach, Switzerland). Using a 30 gauze needle a cell suspension of […] in […] of HBSS (Invitrogen, Basel Switzerland) is injected through the articular cartilage and epiphysis into the tibia. In total, 48 animals in 6 groups, 8 animals each, are used in this study. […]
Peripheral Quantitative Computed Tomography (pQCT), End-Point Determination:
Total, cortical, and cancellous bone mass and geometry are monitored using an XCT-Research SA+ (Stratec-Norland, Pforzheim, Germany) fitted with a 0.5 mm collimator. […] Slices located 2, 3, 4, and 5 mm distal from the intercondylar tubercle in the proximal tibia metaphysis are analysed. […]
3D structural parameters of cancellous bone are measured non-invasively by microCT as described. […] A region of 200 slices at a position of 1 mm below the growth plate (secondary spongiosa) corresponding to the site of injection of the 4T1luc2000 cells is measured at a nominal resolution of approximately 15 μm (FIG. 3). […]
All results from the bone studies are expressed as mean *standard error (SEM). […]

For the molecule `CCCN1CCC(c2ccc(C(=O)NC3(C(=O)NCC#N)CCCCC3)cc2)CC1` [N-[1-(Cyanomethyl-carbamoyl)-cyclohexyl]-4-(1-propyl-piperidin-4-yl)-benzamide], the anti-osteolytic activity result is reported as “additive anti-osteolytic activity which is superior to Zoledronic Acid single treatment”.
